Assays:
HCT116 cells = experiment: Growth inhibitory activity using HCT116 cells (Cell Titer-Glo); assay type: cell-based, human; conditions: compound 1 μM, 3 days; for inhibition at 1 µM: Homo sapiens, HCT-116, 72 h, read-out: Cell growth inhibition ratio at compound concentration of 1 μM
Description: HCT 116 cells (ATCC) were seeded in a 384-well plate at a density of 6×10^2 cells/well, and cultured overnight in a cell culture medium McCoy's 5A (Thermo Fisher Scientific) containing 10% FBS (fetal bovine serum) and 1% penicillin/streptomycin. The dissolved test compound was added in the cell medium, and the cell medium was left standing in a CO2 incubator (37° C.) for 3 days. A Cell Titer-Glo solution (Promega Corporation) was added, the mixture was stirred at room temperature for 10 minutes, and the emission value was measured by Envision (PerkinElmer). The inhibition ratio (%) of HCT116 cell growth by the test compound was calculated in accordance with the following expression. Inhibition ratio (%)=(1−(count of test compound−blank)÷(control−blank))×100
The count of the HCT116 cell suspension without addition of the compound was described as a control, and the count without addition of the compound and addition of HCT116 cells was described as a blank. The concentration at which the inhibition ratio was 50% was defined as an IC50 value.

CLK2 enzyme = molecular target: T1, CLK2 enzyme (Homo sapiens, UniProt P49760); experiment: Measurement of CLK2 inhibitory activity (LANCE time-resolved fluorescence, ULight-labeled MBP peptide); assay type: biochemical; conditions: compound 1 μM; for inhibition at 1 µM: ATP 1 mM, read-out: CLK2 activity inhibition ratio at compound concentration of 1 μM (ATP 1 mM)
T1 construct: purchased Thermo Fisher Scientific
T1 sequence (P49760 whole entry): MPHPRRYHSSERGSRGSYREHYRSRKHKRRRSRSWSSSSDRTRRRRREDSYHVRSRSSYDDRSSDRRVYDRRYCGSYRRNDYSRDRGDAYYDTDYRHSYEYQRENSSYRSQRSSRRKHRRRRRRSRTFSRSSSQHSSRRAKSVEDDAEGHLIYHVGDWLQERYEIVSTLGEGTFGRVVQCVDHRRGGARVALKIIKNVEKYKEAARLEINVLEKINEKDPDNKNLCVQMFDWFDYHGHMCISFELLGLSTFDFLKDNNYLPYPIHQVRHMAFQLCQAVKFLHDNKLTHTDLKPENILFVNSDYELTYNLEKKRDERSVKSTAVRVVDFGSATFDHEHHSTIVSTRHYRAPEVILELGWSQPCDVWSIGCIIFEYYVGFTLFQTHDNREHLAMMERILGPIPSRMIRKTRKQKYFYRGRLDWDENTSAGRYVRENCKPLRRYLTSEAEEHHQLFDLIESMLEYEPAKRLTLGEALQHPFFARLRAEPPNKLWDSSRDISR
Description: A test compound dissolved in DMSO was added to a reaction solution (50 mM HEPES (pH: 7.5), 10 mM MgCl2, 1 mM EGTA, 2 mM DTT, 0.01% Tween 20, 0.01% BSA) containing a CLK2 enzyme (Thermo Fisher Scientific) and an ULight-labeled MBP peptide (PerkinElmer), and the mixture was then reacted at room temperature for 10 minutes. An ATP solution was added to a final concentration of 1 mM to initiate an enzyme reaction, and the reaction was carried out at room temperature for 60 minutes. A europium-labeled anti-phosphorylated MBP antibody (PerkinElmer) and a LANCE Detection buffer (PerkinElmer) containing EDTA with a final concentration of 20 mM were added to stop the reaction, the mixture was left standing for 60 minutes, and the time-resolved fluorescence value (excitation 320 nm, and emission 615 nm and 665 nm) was measured by Envision (PerkinElmer). The inhibition ratio (%) of CLK2 by the test compound was calculated in accordance with the following expression. Inhibition ratio (%)=(1−(count of test compound−blank)÷(control−blank))×100
The count of the CLK2 enzyme reaction solution without addition of the compound was described as a control, and the count without addition of the compound and addition of the CLK2 enzyme was described as a blank. The concentration at which the inhibition ratio was 50% was defined as an IC50 value.

inhibition at 1 µM (CLK2 enzyme) [%] | CLK2 activity inhibition ratio at compound concentration of 1 μM (ATP 1 mM) (CLK2 enzyme) [%] | SMILES | inhibition at 1 µM (HCT116 cells) [%] | Cell growth inhibition ratio at compound concentration of 1 μM (HCT116 cells) [%]
100 |  | COc1ncnc2ccn(-c3cnc4nc(C)n(Cc5cc(F)cc(F)c5)c4c3)c12 [Example 7, 1-(3,5-difluorobenzyl)-6-(4-methoxy-5H-pyrrolo[3,2-d]pyrimidin-5-yl)-2-methyl-1H-imidazo[4,5-b]pyridine] | 92 | 
100 |  | COc1ncnn2ccc(-c3cnc4nc(C)n(Cc5cccc(F)c5)c4c3)c12 [Example 175, 1-(3-fluorobenzyl)-6-(4-methoxypyrrolo[2,1-f][1,2,4]triazin-5-yl)-2-methyl-1H-imidazo[4,5-b]pyridine] | 91 | 
100 |  | COc1ncnn2ccc(-c3cnc4nc(C)n(Cc5nnc(C(C)(C)F)o5)c4c3)c12 [Example 277, 1-((5-(2-fluoropropan-2-yl)-1,3,4-oxadiazol-2-yl)methyl)-6-(4-methoxypyrrolo[2,1-f][1,2,4]triazin-5-yl)-2-methyl-1H-imidazo[4,5-b]pyridine] | 95 | 
 | 100 | COc1nc2ncc(-n3ccc4ncc(C(C)O)nc43)cc2n1Cc1cccc(F)c1 (stereo not shown) [Example 160, 1-(5-(1-(3-fluorobenzyl)-2-methoxy-1H-imidazo[4,5-b]pyridin-6-yl)-5H-pyrrolo[2,3-b]pyrazin-3-yl)ethanol] |  | 98
100 |  | COc1ncnn2ccc(-c3cnc4nc(C)n(Cc5nnc(C(C)(F)F)o5)c4c3)c12 [Example 274] | 93 | 
100 |  | COc1ncnn2ccc(-c3cnc4nc(C)n(Cc5nnc(C)o5)c4c3)c12 [Example 193, 6-(4-methoxypyrrolo[2,1-f][1,2,4]triazin-5-yl)-2-methyl-1-((5-methyl-1,3,4-oxadiazol-2-yl)methyl)-1H-imidazo[4,5-b]pyridine] | 98 | 
100 |  | COc1ccnc2cnn(-c3cnc4nc(C)n(Cc5cccc(F)c5)c4c3)c12 [Example 105, 1-(1-(3-fluorobenzyl)-2-methyl-1H-imidazo[4,5-b]pyridin-6-yl)-7-methoxy-1H-pyrazolo[4,3-b]pyridine] | 96 | 
99 |  | COc1ncnn2ccc(-c3cnc4nc(C)n(Cc5nc(C)no5)c4c3)c12 [Example 186, 6-(4-methoxypyrrolo[2,1-f][1,2,4]triazin-5-yl)-2-methyl-1-((3-methyl-1,2,4-oxadiazol-5-yl)methyl)-1H-imidazo[4,5-b]pyridine] | 96 | 
99 |  | COc1ncnn2ccc(-c3cnc4nc(C)n(Cc5noc(C)n5)c4c3)c12 [Example 214, 6-(4-methoxypyrrolo[2,1-f][1,2,4]triazin-5-yl)-2-methyl-1-((5-methyl-1,2,4-oxadiazol-3-yl)methyl)-1H-imidazo[4,5-b]pyridine] | 96 | 
100 |  | COc1ncnn2ccc(-c3cnc4nc(C)n(Cc5cc(C)no5)c4c3)c12 [Example 215] | 95 | 
100 |  | COc1ccnc2ccn(-c3cnc4nc(C)n(Cc5cccc(F)c5)c4c3)c12 [Example 102, 1-(3-fluorobenzyl)-6-(7-methoxy-1H-pyrrolo[3,2-b]pyridin-1-yl)-2-methyl-1H-imidazo[4,5-b]pyridine] | 95 | 
100 |  | COc1ncnn2ccc(-c3cnc4nc(C)n(Cc5nnc(C(F)F)o5)c4c3)c12 [Example 242, 1-((5-(difluoromethyl)-1,3,4-oxadiazol-2-yl)methyl)-6-(4-methoxypyrrolo[2,1-f][1,2,4]triazin-5-yl)-2-methyl-1H-imidazo[4,5-b]pyridine] | 94 | 
100 |  | COc1cnc2ccn(-c3cnc4nc(C)n(Cc5cccc(F)c5)c4c3)c2n1 [Example 110, 1-(3-fluorobenzyl)-6-(3-methoxy-5H-pyrrolo[2,3-b]pyrazin-5-yl)-2-methyl-1H-imidazo[4,5-b]pyridine] | 92 | 
100 |  | COc1ncnn2ccc(-c3cnc4nc(C)n(Cc5nnc(C6(F)CC6)o5)c4c3)c12 [Example 283, 1-((5-(1-fluorocyclopropyl)-1,3,4-oxadiazol-2-yl)methyl)-6-(4-methoxypyrrolo[2,1-f][1,2,4]triazin-5-yl)-2-methyl-1H-imidazo[4,5-b]pyridine] | 96 | 
100 |  | COc1ncnn2ccc(-c3cnc4nc(CO)n(Cc5cc(F)cc(F)c5)c4c3)c12 [Example 176, (1-(3,5-difluorobenzyl)-6-(4-methoxypyrrolo[2,1-f][1,2,4]triazin-5-yl)-1H-imidazo[4,5-b]pyridin-2-yl)methanol] | 85 | 
100 |  | COc1nc2ncc(-n3ccc4ncc(C(C)O)nc43)cc2n1Cc1cccc(F)c1 (stereo not shown) [Example 161, 1-(5-(1-(3-fluorobenzyl)-2-methoxy-1H-imidazo[4,5-b]pyridin-6-yl)-5H-pyrrolo[2,3-b]pyrazin-3-yl)ethanol] | 97 | 
100 |  | COc1ncnn2ccc(-c3cnc4nc(C)n(Cc5nc(C)ns5)c4c3)c12 [Example 229, 6-(4-methoxypyrrolo[2,1-f][1,2,4]triazin-5-yl)-2-methyl-1-((3-methyl-1,2,4-thiadiazol-5-yl)methyl)-1H-imidazo[4,5-b]pyridine] | 97 | 

Reference: patent US10577382B2, “Fused heterocyclic compound” (TAKEDA PHARMACEUTICAL COMPANY LIMITED, priority 2016, dated 2020)
